Data as given in patent US10183030B2, “17α,21-diesters of cortexolone for use in the treatment of tumors” (COSMO TECHNOLOGIES LTD., priority 2014, dated 2019).
pIC50: −log10 of the molar value. Read-outs that look alike come from different tables or passages of the source.

How the values were obtained:
[1] = test system: resting PBMC (quiescent, non-dividing cells); experiment: IC50 on resting PBMC (intrinsic toxicity); type: cell-based; conditions: Homo sapiens, resting PBMC
Protocol: The IC50 in PBMC were tested in 2 different activation status: • stimulated—actively dividing cells • resting—quiescent, non-dividing cells
IC50 of the compounds was determined on fresh cells isolated from human blood (PBMC).

[2] = test system: HT29 epithelial intestinal cancer cells; experiment: MTT colorimetric assay on HT29; type: cell-based; conditions: Homo sapiens, 72 h
Protocol: The experiment was performed to test and define anticancer activity in vitro of Cortexolone 17α-benzoate and cortexolone 17α-valerate-21-propionate on cell lines representatives of epithelial intestinal tumors, namely HT29. The experiment method consisted in: • 1. Monolayer HT-29 cells were plated in: 96-wells plates at the density of 2×10^4 cells/mL. The cells plated were kept at 37° C. in 5% CO2 and left to attach for 24 h. • 2. Thereafter the cells were incubated for 72 h with the test compounds at the concentrations each of […]. • 3. After 72 h of treatment, the MTT colorimetric assay was performed.

[3] = test system: LNCaP xenograft tumor; experiment: LNCaP human prostate cancer xenograft in nude mice, oral dosing; type: in vivo, mouse
Protocol: 3×10^6 LNCaP cells suspended in matrigel were subcutaneously injected (on the right flank) into 6 week old male athymic nude mice. Tumors were measured as described above. Treatment with CB-03-10 and controls compounds was initiated after the tumor had reached 50 mm^3. […] Oral dosing was daily (100 mg/Kg in 200 μL/mouse) for 28 consecutive days. Results were plotted as average change in tumor volume relative to the start of treatment.

[4] = target: T1, Glucocorticoid Receptor (Homo sapiens, UniProt P04150); experiment: GR reporter assay, agonist mode; type: cell-based; conditions: at very high concentrations
T1 construct: endogenous in cells; host or cells: human kidney epithelial cells
T1 sequence (P04150 1-777): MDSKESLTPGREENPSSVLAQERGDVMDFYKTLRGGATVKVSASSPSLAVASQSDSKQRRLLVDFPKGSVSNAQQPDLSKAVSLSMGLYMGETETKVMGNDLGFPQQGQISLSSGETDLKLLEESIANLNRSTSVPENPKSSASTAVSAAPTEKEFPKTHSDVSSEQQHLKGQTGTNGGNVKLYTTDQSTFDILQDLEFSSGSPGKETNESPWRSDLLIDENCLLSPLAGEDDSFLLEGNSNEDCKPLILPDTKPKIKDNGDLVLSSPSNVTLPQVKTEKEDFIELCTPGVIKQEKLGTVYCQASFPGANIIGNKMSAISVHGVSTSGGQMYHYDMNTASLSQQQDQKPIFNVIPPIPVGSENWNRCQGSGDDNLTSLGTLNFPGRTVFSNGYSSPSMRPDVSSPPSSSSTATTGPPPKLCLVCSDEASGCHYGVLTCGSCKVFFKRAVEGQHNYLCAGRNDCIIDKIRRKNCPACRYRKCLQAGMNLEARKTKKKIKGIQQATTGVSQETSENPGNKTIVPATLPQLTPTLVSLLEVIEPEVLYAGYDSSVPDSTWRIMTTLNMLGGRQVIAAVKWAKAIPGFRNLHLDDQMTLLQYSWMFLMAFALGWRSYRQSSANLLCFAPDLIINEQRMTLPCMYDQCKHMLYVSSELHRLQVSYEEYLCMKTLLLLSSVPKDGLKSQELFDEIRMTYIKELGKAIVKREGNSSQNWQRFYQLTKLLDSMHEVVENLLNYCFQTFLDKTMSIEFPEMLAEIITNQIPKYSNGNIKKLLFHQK
Protocol: The androgen and glucocorticoid hormones elicit divergent and often opposing effects in cells, tissues, and animals. […] CB-03-10 GR antagonist and agonist activities were tested in an in vitro assay. Briefly, human kidney epithelial cells were transfected with DNA construct containing GR binding sites linked to luminescent based reporter molecule. After 24 hours, cells were treated under antagonist or agonist modes. After an additional 24 hours, luminescence which is proportional to GR agonist transcriptional activity was quantitated.
Agonist Assay—was based on induction of luminescence by CB-03-10
The agonist activity of CB-03-10 was compared to a RU486 which is known to not have agonist activity.

Molecule `CCCCC(=O)O[C@]1(C(=O)COC(=O)CC)CC[C@H]2[C@@H]3CCC4=CC(=O)CC[C@]4(C)[C@H]3CC[C@@]21C` [CB-03-10, cortexolone 17α-valerate-21-propionate] has a pIC50 ([1]; Example 7, Experiment 1, read-out: IC50 (microM) on Resting PBMC) of 3.94, a pIC50 ([1]; Example 7, Experiment 2, read-out: IC50 (microM) on Resting PBMC) of 3.92 and an inhibition at 0.8 µM ([2]; HT-29, 0.8 micromolar) of 0.44%. It also gave an inhibition at 4 µM ([2]; HT-29, 4 micromolar) of 14.2%, an inhibition at 20 µM ([2]; HT-29, 20 micromolar) of 25.5% and an inhibition at 100 µM ([2]; HT-29, 100 micromolar) of 89.8%. The inhibition at 500 µM ([2]; HT-29, 500 micromolar) was 92.1%, the “average tumor volume smaller than in the vehicle group” value ([3]; 6 weeks after treatment was stopped, oral 100 mg/Kg) was 3.6 times and the “statistical significance of tumor growth versus vehicle” value ([3]; FIG. 16, oral gavage) was “statistically significantly different from day 7 up to day 60”. The “GR agonist activity relative to 50 nM Dex” value [4] was 20%.
